Reference: article PMC6364417, “Kinase inhibitor library screening identifies synergistic drug combinations effective in sensitive and resistant melanoma cells” (Journal of Experimental & Clinical Cancer Research : CR, 2019)

Experiments:
Assay in all cases: Kinase inhibitor library screening, PrestoBlue cell viability, 1 or 10 μM, 72 h
501Mel cells (parental) = conditions: 501Mel Parental
Summary of the method: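 Each compound was applied to parental melanoma cells and to derivatives made resistant to Vemurafenib or Dabrafenib. After treatment, viability was read with PrestoBlue on a plate reader and expressed as % of untreated cells, with each line run at least in duplicate.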

[1] = system: 501Mel-GP cells (Dabrafenib-resistant); conditions: 501Mel GP
[2] = system: 501Mel-XP cells (Vemurafenib-resistant); conditions: 501Mel XP
A375 cells (parental) = conditions: A375 Parental
[3] = system: A375-GP cells (Dabrafenib-resistant); conditions: A375 GP
[4] = system: A375-XP cells (Vemurafenib-resistant); conditions: A375 XP
IGR37 cells (parental) = conditions: IGR37 Parental
[5] = system: IGR37-GP cells (Dabrafenib-resistant); conditions: IGR37 GP
[6] = system: IGR37-XP cells (Vemurafenib-resistant); conditions: IGR37 XP

Row | SMILES | Cell viability in kinase inhibitor library screening, 501Mel Parental, 1μΜ (501Mel cells (parental); 1μΜ, 72 h, in %) | Cell viability in kinase inhibitor library screening, 501Mel Parental, 10μΜ (501Mel cells (parental); 10μΜ, 72 h, in %) | Cell viability in kinase inhibitor library screening, 501Mel GP, 1μΜ ([1]; 1μΜ, 72 h, in %) | Cell viability in kinase inhibitor library screening, 501Mel GP, 10μΜ ([1]; 10μΜ, 72 h, in %) | Cell viability in kinase inhibitor library screening, 501Mel XP, 1μΜ ([2]; 1μΜ, 72 h, in %) | Cell viability in kinase inhibitor library screening, 501Mel XP, 10μΜ ([2]; 10μΜ, 72 h, in %) | Cell viability in kinase inhibitor library screening, A375 Parental, 10μΜ (A375 cells (parental); 10μΜ, 72 h) | Cell viability in kinase inhibitor library screening, A375 Parental, 1μΜ (A375 cells (parental); 1μΜ, 72 h) | Cell viability in kinase inhibitor library screening, A375 GP, 1μΜ ([3]; 1μΜ, 72 h) | Cell viability in kinase inhibitor library screening, A375 GP, 10μΜ ([3]; 10μΜ, 72 h) | Cell viability in kinase inhibitor library screening, A375 XP, 1μΜ ([4]; 1μΜ, 72 h) | Cell viability in kinase inhibitor library screening, A375 XP, 10μΜ ([4]; 10μΜ, 72 h) | Cell viability in kinase inhibitor library screening, IGR37 Parental, 10μΜ (IGR37 cells (parental); 10μΜ, 72 h, in %) | Cell viability in kinase inhibitor library screening, IGR37 GP, 10μΜ ([5]; 10μΜ, 72 h) [%] | Cell viability in kinase inhibitor library screening, IGR37 GP, 1μΜ ([5]; 1μΜ, 72 h, in %) | Cell viability in kinase inhibitor library screening, IGR37 XP, 10μΜ ([6]; 10μΜ, 72 h) [%] | Cell viability in kinase inhibitor library screening, IGR37 XP, 1μΜ ([6]; 1μΜ, 72 h, in %) | Cell viability in kinase inhibitor library screening, IGR37 Parental, 1μΜ (IGR37 cells (parental); 1μΜ, 72 h, in %) | other results
1 | CNC(=O)c1cccc(-c2ccc3c(N4CCOC[C@@H]4C)nc(N4CCOC[C@@H]4C)nc3n2)c1 [AZD2014] | 39.4 | 8.5 | 28.3 | 9.6 | 21.8 | 3.5 | 21.1 | 34.9 | 33.7 | 19.6 | 29.1 | 19.4 | 12.3 | 28.2 | 63.5 | 9.4 | 49.7 | – | –
2 | CC(C)(C)c1nc(-c2cccc(NS(=O)(=O)c3c(F)cccc3F)c2F)c(-c2ccnc(N)n2)s1 [Dabrafenib (GSK2118436)] | 51.2 | 72.8 | 96.2 | 92.9 | 79.2 | 97.5 | 26.9 | 17.6 | 65.8 | 52.9 | 73.0 | 48.7 | 44.5 | 97.8 | 94.6 | 78.9 | 93.2 | 34.2 | –
3 | C[C@@H](N)[C@H]1CC[C@H](C(=O)Nc2ccncc2)CC1.Cl.Cl [Y-27632 2HCl] | – | – | – | – | – | – | – | – | – | – | – | – | – | – | – | – | – | – | cell viability (kinase inhibitor library screening) (501Mel cells (parental); 1μΜ, in %): 96.3; cell viability (kinase inhibitor library screening) ([1]; 10μΜ, in %): 87.8; cell viability (kinase inhibitor library screening) ([2]; 1μΜ, in %): 90.1; cell viability (kinase inhibitor library screening) ([2]; 10μΜ, in %): 88.2; cell viability (kinase inhibitor library screening) (A375 cells (parental); 10μΜ, in %): 91.8; cell viability (kinase inhibitor library screening) ([3]; 1μΜ, in %): 97.3; cell viability (kinase inhibitor library screening) ([3]; 10μΜ, in %): 96.3; cell viability (kinase inhibitor library screening) ([4]; 1μΜ, in %): 103.7; cell viability (kinase inhibitor library screening) ([4]; 10μΜ, in %): 107.2; cell viability (kinase inhibitor library screening) (IGR37 cells (parental); 10μΜ, in %): 97.4; cell viability (kinase inhibitor library screening) ([5]; 1μΜ, in %): 98.0; cell viability (kinase inhibitor library screening) ([5]; 10μΜ, in %): 91.2; cell viability (kinase inhibitor library screening) ([6]; 1μΜ, in %): 97.8; cell viability (kinase inhibitor library screening) ([6]; 10μΜ, in %): 70.6
4 | CCc1cccc(CC)c1NC(=O)N1Cc2n[nH]c(NC(=O)c3ccc(N4CCN(C)CC4)cc3)c2C1 [PHA-680632] | – | – | – | – | – | – | – | – | – | – | – | – | – | – | – | – | – | – | cell viability (kinase inhibitor library screening) (501Mel cells (parental); 1μΜ, 72 h): 104.0%; cell viability (kinase inhibitor library screening) (501Mel cells (parental); 10μΜ, 72 h): 95.7%; cell viability (kinase inhibitor library screening) ([1]; 1μΜ, 72 h): 105.0%; cell viability (kinase inhibitor library screening) ([1]; 10μΜ, 72 h): 79.1%; cell viability (kinase inhibitor library screening) ([2]; 1μΜ, 72 h): 96.6%; cell viability (kinase inhibitor library screening) ([2]; 10μΜ, 72 h): 75.1%; cell viability (kinase inhibitor library screening) (A375 cells (parental); 10μΜ, 72 h): 37.5%; cell viability (kinase inhibitor library screening) (A375 cells (parental); 1μΜ, 72 h): 85.1%; cell viability (kinase inhibitor library screening) ([3]; 1μΜ, 72 h): 81.0%; cell viability (kinase inhibitor library screening) ([3]; 10μΜ, 72 h): 37.4%; cell viability (kinase inhibitor library screening) ([4]; 1μΜ, 72 h): 93.5%; cell viability (kinase inhibitor library screening) ([4]; 10μΜ, 72 h): 51.3%; cell viability (kinase inhibitor library screening) (IGR37 cells (parental); 1μΜ, 72 h): 93.9%; cell viability (kinase inhibitor library screening) (IGR37 cells (parental); 10μΜ, 72 h): 73.1%; cell viability (kinase inhibitor library screening) ([5]; 1μΜ, 72 h): 92.2%; cell viability (kinase inhibitor library screening) ([5]; 10μΜ, 72 h): 78.7%; cell viability (kinase inhibitor library screening) ([6]; 1μΜ, 72 h): 96.4%; cell viability (kinase inhibitor library screening) ([6]; 10μΜ, 72 h): 40.2%
5 | COc1ccc2cc(-c3nc(-c4ccc([S+](C)[O-])cc4)[nH]c3-c3ccncc3)ccc2c1 (stereo not drawn) [Tie2 kinase inhibitor] | – | – | – | – | – | – | – | – | – | – | – | – | – | – | – | – | – | – | cell viability (kinase inhibitor library screening) (501Mel cells (parental); 1μΜ, in %): 96.1; cell viability (kinase inhibitor library screening) (501Mel cells (parental); 10μΜ, in %): 90.5; cell viability (kinase inhibitor library screening) ([1]; 1μΜ, in %): 107.0; cell viability (kinase inhibitor library screening) ([1]; 10μΜ, in %): 87.5; cell viability (kinase inhibitor library screening) ([2]; 1μΜ, in %): 96.5; cell viability (kinase inhibitor library screening) ([2]; 10μΜ, in %): 64.5; cell viability (kinase inhibitor library screening) (A375 cells (parental); 10μΜ, in %): 96.4; cell viability (kinase inhibitor library screening) ([3]; 1μΜ, in %): 96.7; cell viability (kinase inhibitor library screening) ([3]; 10μΜ, in %): 82.6; cell viability (kinase inhibitor library screening) ([4]; 10μΜ, in %): 97.1; cell viability (kinase inhibitor library screening) (IGR37 cells (parental); 10μΜ, in %): 103.5; cell viability (kinase inhibitor library screening) ([5]; 1μΜ, in %): 94.1; cell viability (kinase inhibitor library screening) ([6]; 10μΜ, in %): 62.0
6 | COC(=O)Nc1ccc(-c2nc(N3CCOCC3)c3cnn(C4CCN(C(=O)OC)CC4)c3n2)cc1 [WYE-354] | 85.1 | 21.3 | 76.5 | 16.5 | 63.3 | 8.7 | 24.6 | 84.7 | 80.7 | 21.5 | 76.7 | 19.6 | 28.9 | 31.6 | 85.9 | 10.6 | 82.2 | 82.1 | –
7 | O=C1NC(=O)/C(=C/c2ccc(-c3ccc(F)cc3O)o2)S1 [AS-252424] | 112.3 | 97.9 | 105.9 | 85.7 | 109.3 | 84.7 | 82.9 | 107.2 | 107.9 | 90.3 | 115.1 | 96.7 | 94.5 | 75.1 | – | 42.3 | 93.7 | 103.0 | –
8 | CCN1CCN(Cc2ccc(-c3cc4c(N[C@H](C)c5ccccc5)ncnc4[nH]3)cc2)CC1 [AEE788 (NVP-AEE788)] | – | – | – | – | – | – | – | – | – | – | – | – | – | – | – | – | – | – | cell viability, 501Mel Parental, 1μΜ (501Mel cells (parental); 1μΜ, 72 h, in %): 103.7; cell viability, 501Mel Parental, 10μΜ (501Mel cells (parental); 10μΜ, 72 h, in %): 1.2; cell viability, 501Mel GP, 1μΜ ([1]; 1μΜ, 72 h, in %): 114.3; cell viability, 501Mel GP, 10μΜ ([1]; 10μΜ, 72 h, in %): 1.2; cell viability, 501Mel XP, 1μΜ ([2]; 1μΜ, 72 h, in %): 105.3; cell viability, 501Mel XP, 10μΜ ([2]; 10μΜ, 72 h, in %): 0.239; cell viability, A375 Parental, 1μΜ (A375 cells (parental); 1μΜ, 72 h, in %): 108.2; cell viability, A375 Parental, 10μΜ (A375 cells (parental); 10μΜ, 72 h, in %): 70.3; cell viability, A375 GP, 1μΜ ([3]; 1μΜ, 72 h, in %): 110.2; cell viability, A375 GP, 10μΜ ([3]; 10μΜ, 72 h, in %): 49.2; cell viability, A375 XP, 1μΜ ([4]; 1μΜ, 72 h, in %): 105.5; cell viability, A375 XP, 10μΜ ([4]; 10μΜ, 72 h, in %): 70.7; cell viability, IGR37 Parental, 10μΜ (IGR37 cells (parental); 10μΜ, 72 h, in %): 87.9; cell viability, IGR37 GP, 10μΜ ([5]; 10μΜ, 72 h): 82.6%; cell viability, IGR37 GP, 1μΜ ([5]; 1μΜ, 72 h, in %): 94.0; cell viability, IGR37 XP, 10μΜ ([6]; 10μΜ, 72 h): 25.4%; cell viability, IGR37 XP, 1μΜ ([6]; 1μΜ, 72 h, in %): 82.4
